In PubChem BioAssay (NCI):
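Assay format: 96-well plates, 48-hour exposure. Abbreviation: GI50, concentration required for 50% inhibition of growth. TGI denotes the concentration required for complete inhibition of growth.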

These molecules were tested on DU-145 prostate (assay: NCI tumour cell line growth inhibition, 48 h).
`CC#Cc1ccc(-c2ccccc2)s1` gave a TGI of over 100 µM. Molecule `CCNC(=O)C#Cc1ccc2c(C(=Nc3ccc(CN(C)C)cc3)c3ccccc3)c(O)[nH]c2c1` has a GI50 of 1.26 µM and a TGI of over 10 µM. With `O=C1c2cc3c(cc2CC12Cc1ccc4c(c1C2=O)CCC4)CCCC3` (configuration not stated) the TGI was over 100 µM. For `N#Cc1nc(-c2cnccn2)oc1N`, the TGI was over 100 µM. For `NC(=S)N/N=C1\c2cc(Cl)ccc2-c2c1cc(Cl)cc2[N+](=O)[O-]`, the GI50 was 10.8 µM and the TGI was over 100 µM.

Each molecule was assayed on COLO 205 colon (assay: NCI tumour cell line growth inhibition, 48 h).
`CC1(C)[C@@H](Cn2cc(I)c(=O)[nH]c2=O)CC[C@@]1(C)CO` was tested, and the TGI was over 100 µM. `CC#Cc1ccc(-c2ccccc2)s1` showed a TGI of over 100 µM. `CCNC(=O)C#Cc1ccc2c(C(=Nc3ccc(CN(C)C)cc3)c3ccccc3)c(O)[nH]c2c1` gave a GI50 of 0.00363 µM and a TGI of 0.0711 µM. Molecule `NC(=S)N/N=C1\c2cc(Cl)ccc2-c2c1cc(Cl)cc2[N+](=O)[O-]` has a GI50 of 3.84 µM and a TGI of 22.2 µM.

The molecules below were run on SF-268 CNS (assay: NCI tumour cell line growth inhibition, 48 h).
`CC1(C)[C@@H](Cn2cc(I)c(=O)[nH]c2=O)CC[C@@]1(C)CO` gave a TGI of over 100 µM. With `CC#Cc1ccc(-c2ccccc2)s1` the TGI was over 100 µM. With `CCNC(=O)C#Cc1ccc2c(C(=Nc3ccc(CN(C)C)cc3)c3ccccc3)c(O)[nH]c2c1` the GI50 was 1.35 µM and the TGI was over 9.48 µM. Work on `O=C1c2cc3c(cc2CC12Cc1ccc4c(c1C2=O)CCC4)CCCC3` (configuration not stated) yielded a TGI of over 100 µM. `N#Cc1nc(-c2cnccn2)oc1N` was tested, and the TGI was over 100 µM. `NC(=S)N/N=C1\c2cc(Cl)ccc2-c2c1cc(Cl)cc2[N+](=O)[O-]` was tested, and the GI50 was 9.79 µM and the TGI was over 100 µM.

These molecules were tested on SN12C renal (assay: NCI tumour cell line growth inhibition, 48 h).
In the case of `CC1(C)[C@@H](Cn2cc(I)c(=O)[nH]c2=O)CC[C@@]1(C)CO`, the TGI is reported as over 100 µM. For `CC#Cc1ccc(-c2ccccc2)s1`, the TGI was over 100 µM. `CCNC(=O)C#Cc1ccc2c(C(=Nc3ccc(CN(C)C)cc3)c3ccccc3)c(O)[nH]c2c1` was tested, and the GI50 was 0.0671 µM and the TGI was 1.59 µM. Molecule `N#Cc1nc(-c2cnccn2)oc1N` has a TGI of over 100 µM. With `NC(=S)N/N=C1\c2cc(Cl)ccc2-c2c1cc(Cl)cc2[N+](=O)[O-]` the GI50 was 4.58 µM and the TGI was over 100 µM.

These molecules were tested on LOX IMVI melanoma (assay: NCI tumour cell line growth inhibition, 48 h).
`CC1(C)[C@@H](Cn2cc(I)c(=O)[nH]c2=O)CC[C@@]1(C)CO` gave a TGI of over 100 µM. In the case of `CC#Cc1ccc(-c2ccccc2)s1`, the TGI is reported as over 100 µM. Molecule `CCNC(=O)C#Cc1ccc2c(C(=Nc3ccc(CN(C)C)cc3)c3ccccc3)c(O)[nH]c2c1` has a GI50 of 0.0067 µM and a TGI of 0.163 µM. For `O=C1c2cc3c(cc2CC12Cc1ccc4c(c1C2=O)CCC4)CCCC3` (configuration not stated), the TGI was over 100 µM. Molecule `N#Cc1nc(-c2cnccn2)oc1N` has a TGI of over 100 µM. For `NC(=S)N/N=C1\c2cc(Cl)ccc2-c2c1cc(Cl)cc2[N+](=O)[O-]`, the GI50 was 9.35 µM and the TGI was over 100 µM.

The molecules below were run on HCC-2998 colon (assay: NCI tumour cell line growth inhibition, 48 h).
Work on `CC1(C)[C@@H](Cn2cc(I)c(=O)[nH]c2=O)CC[C@@]1(C)CO` yielded a TGI of over 100 µM. `CCNC(=O)C#Cc1ccc2c(C(=Nc3ccc(CN(C)C)cc3)c3ccccc3)c(O)[nH]c2c1` showed a GI50 of 0.106 µM and a TGI of 0.696 µM. `O=C1c2cc3c(cc2CC12Cc1ccc4c(c1C2=O)CCC4)CCCC3` (configuration not stated) was tested, and the TGI was over 100 µM. For `NC(=S)N/N=C1\c2cc(Cl)ccc2-c2c1cc(Cl)cc2[N+](=O)[O-]`, the GI50 was 12.1 µM and the TGI was over 100 µM.

What follows are molecules tested on U251 CNS (assay: NCI tumour cell line growth inhibition, 48 h).
In the case of `CC1(C)[C@@H](Cn2cc(I)c(=O)[nH]c2=O)CC[C@@]1(C)CO`, the TGI is reported as over 100 µM. Molecule `CC#Cc1ccc(-c2ccccc2)s1` has a TGI of over 100 µM. `CCNC(=O)C#Cc1ccc2c(C(=Nc3ccc(CN(C)C)cc3)c3ccccc3)c(O)[nH]c2c1` showed a GI50 of 0.376 µM and a TGI of 2.9 µM. `O=C1c2cc3c(cc2CC12Cc1ccc4c(c1C2=O)CCC4)CCCC3` (configuration not stated) gave a TGI of over 100 µM. Molecule `N#Cc1nc(-c2cnccn2)oc1N` has a TGI of over 100 µM. Molecule `NC(=S)N/N=C1\c2cc(Cl)ccc2-c2c1cc(Cl)cc2[N+](=O)[O-]` has a GI50 of 2.99 µM and a TGI of 14.9 µM.

These molecules were tested on ACHN renal (assay: NCI tumour cell line growth inhibition, 48 h).
In the case of `CC1(C)[C@@H](Cn2cc(I)c(=O)[nH]c2=O)CC[C@@]1(C)CO`, the TGI is reported as over 100 µM. `CC#Cc1ccc(-c2ccccc2)s1` was tested, and the TGI was over 100 µM. Molecule `CCNC(=O)C#Cc1ccc2c(C(=Nc3ccc(CN(C)C)cc3)c3ccccc3)c(O)[nH]c2c1` has a GI50 of 0.265 µM and a TGI of 2.58 µM. `O=C1c2cc3c(cc2CC12Cc1ccc4c(c1C2=O)CCC4)CCCC3` (configuration not stated) was tested, and the TGI was over 100 µM. `N#Cc1nc(-c2cnccn2)oc1N` was tested, and the TGI was over 100 µM. `NC(=S)N/N=C1\c2cc(Cl)ccc2-c2c1cc(Cl)cc2[N+](=O)[O-]` was tested, and the GI50 was 4.81 µM and the TGI was over 100 µM.

Each molecule was assayed on MDA-MB-435 (assay: NCI tumour cell line growth inhibition, 48 h).
With `CC1(C)[C@@H](Cn2cc(I)c(=O)[nH]c2=O)CC[C@@]1(C)CO` the TGI was over 100 µM. In the case of `CC#Cc1ccc(-c2ccccc2)s1`, the TGI is reported as over 100 µM. In the case of `CCNC(=O)C#Cc1ccc2c(C(=Nc3ccc(CN(C)C)cc3)c3ccccc3)c(O)[nH]c2c1`, the GI50 is reported as 0.0127 µM and the TGI is reported as 2.51 µM. Molecule `O=C1c2cc3c(cc2CC12Cc1ccc4c(c1C2=O)CCC4)CCCC3` (configuration not stated) has a TGI of over 100 µM. With `N#Cc1nc(-c2cnccn2)oc1N` the TGI was over 100 µM. In the case of `NC(=S)N/N=C1\c2cc(Cl)ccc2-c2c1cc(Cl)cc2[N+](=O)[O-]`, the GI50 is reported as 7.28 µM and the TGI is reported as over 100 µM.

The molecules below were run on HOP-92 NSCLC (assay: NCI tumour cell line growth inhibition, 48 h).
In the case of `CC1(C)[C@@H](Cn2cc(I)c(=O)[nH]c2=O)CC[C@@]1(C)CO`, the TGI is reported as over 100 µM. Work on `CC#Cc1ccc(-c2ccccc2)s1` yielded a TGI of over 100 µM. `CCNC(=O)C#Cc1ccc2c(C(=Nc3ccc(CN(C)C)cc3)c3ccccc3)c(O)[nH]c2c1` was tested, and the GI50 was 0.00812 µM and the TGI was 0.0532 µM. For `O=C1c2cc3c(cc2CC12Cc1ccc4c(c1C2=O)CCC4)CCCC3` (configuration not stated), the TGI was over 100 µM. In the case of `N#Cc1nc(-c2cnccn2)oc1N`, the TGI is reported as over 100 µM. `NC(=S)N/N=C1\c2cc(Cl)ccc2-c2c1cc(Cl)cc2[N+](=O)[O-]` showed a GI50 of 2.22 µM and a TGI of 13.1 µM.

What follows are molecules tested on NCI-H23 lung (assay: NCI tumour cell line growth inhibition, 48 h).
Work on `CC#Cc1ccc(-c2ccccc2)s1` yielded a TGI of over 100 µM. Work on `CCNC(=O)C#Cc1ccc2c(C(=Nc3ccc(CN(C)C)cc3)c3ccccc3)c(O)[nH]c2c1` yielded a GI50 of 0.0614 µM and a TGI of over 4.28 µM. `O=C1c2cc3c(cc2CC12Cc1ccc4c(c1C2=O)CCC4)CCCC3` (configuration not stated) gave a TGI of over 100 µM. In the case of `NC(=S)N/N=C1\c2cc(Cl)ccc2-c2c1cc(Cl)cc2[N+](=O)[O-]`, the GI50 is reported as 3.86 µM and the TGI is reported as over 100 µM.

Each molecule was assayed on SNB-75 CNS (assay: NCI tumour cell line growth inhibition, 48 h).
With `CC1(C)[C@@H](Cn2cc(I)c(=O)[nH]c2=O)CC[C@@]1(C)CO` the TGI was over 100 µM. `CC#Cc1ccc(-c2ccccc2)s1` gave a TGI of over 100 µM. In the case of `CCNC(=O)C#Cc1ccc2c(C(=Nc3ccc(CN(C)C)cc3)c3ccccc3)c(O)[nH]c2c1`, the GI50 is reported as 0.75 µM and the TGI is reported as 2.21 µM. For `O=C1c2cc3c(cc2CC12Cc1ccc4c(c1C2=O)CCC4)CCCC3` (configuration not stated), the TGI was over 100 µM. `N#Cc1nc(-c2cnccn2)oc1N` showed a TGI of over 100 µM. In the case of `NC(=S)N/N=C1\c2cc(Cl)ccc2-c2c1cc(Cl)cc2[N+](=O)[O-]`, the GI50 is reported as 2.84 µM and the TGI is reported as 28.3 µM.

What follows are molecules tested on BT-549 breast (assay: NCI tumour cell line growth inhibition, 48 h).
`CCNC(=O)C#Cc1ccc2c(C(=Nc3ccc(CN(C)C)cc3)c3ccccc3)c(O)[nH]c2c1` was tested, and the GI50 was 1.51 µM and the TGI was over 10 µM. `NC(=S)N/N=C1\c2cc(Cl)ccc2-c2c1cc(Cl)cc2[N+](=O)[O-]` showed a GI50 of 3.41 µM and a TGI of 36.7 µM.

These molecules were tested on MCF7 breast (assay: NCI tumour cell line growth inhibition, 48 h).
`CC#Cc1ccc(-c2ccccc2)s1` was tested, and the TGI was over 100 µM. Work on `CCNC(=O)C#Cc1ccc2c(C(=Nc3ccc(CN(C)C)cc3)c3ccccc3)c(O)[nH]c2c1` yielded a GI50 of 0.0458 µM and a TGI of 4.59 µM. In the case of `O=C1c2cc3c(cc2CC12Cc1ccc4c(c1C2=O)CCC4)CCCC3` (configuration not stated), the TGI is reported as over 100 µM. `N#Cc1nc(-c2cnccn2)oc1N` was tested, and the TGI was over 100 µM. For `NC(=S)N/N=C1\c2cc(Cl)ccc2-c2c1cc(Cl)cc2[N+](=O)[O-]`, the GI50 was 1.98 µM and the TGI was 16.8 µM.

What follows are molecules tested on UACC-257 melanoma (assay: NCI tumour cell line growth inhibition, 48 h).
Molecule `CC1(C)[C@@H](Cn2cc(I)c(=O)[nH]c2=O)CC[C@@]1(C)CO` has a TGI of over 100 µM. For `CC#Cc1ccc(-c2ccccc2)s1`, the TGI was over 100 µM. With `CCNC(=O)C#Cc1ccc2c(C(=Nc3ccc(CN(C)C)cc3)c3ccccc3)c(O)[nH]c2c1` the GI50 was 0.0216 µM and the TGI was 0.114 µM. Molecule `O=C1c2cc3c(cc2CC12Cc1ccc4c(c1C2=O)CCC4)CCCC3` (configuration not stated) has a TGI of over 100 µM. Molecule `N#Cc1nc(-c2cnccn2)oc1N` has a TGI of over 100 µM. With `NC(=S)N/N=C1\c2cc(Cl)ccc2-c2c1cc(Cl)cc2[N+](=O)[O-]` the GI50 was 6.56 µM and the TGI was over 100 µM.
